The text below walks through data of patent publication US20110152166A1, “METHOD OF MODULATION OF PROTEIN PHOSPHORYLATION-DEPENDENT CONFORMATIONAL TRANSITIONS WITH LOW MOLECULAR WEIGHT COMPOUNDS” (priority 2006, published 2011).

Holding throughout (assay): PDK1 activity assay with T308tide
What all share (assay type): biochemical

The target of one assay is T1, GST-PDK1 [Arg131Met] (Homo sapiens, UniProt O15530, R131M).
T1 construct: different protein constructs, comprising the full length protein or the catalytic domain alone; made in house; host or cells: HEK293 cells (pEBG-2T-PDK1 mutant)
T1 sequence (O15530 1-556 R131M): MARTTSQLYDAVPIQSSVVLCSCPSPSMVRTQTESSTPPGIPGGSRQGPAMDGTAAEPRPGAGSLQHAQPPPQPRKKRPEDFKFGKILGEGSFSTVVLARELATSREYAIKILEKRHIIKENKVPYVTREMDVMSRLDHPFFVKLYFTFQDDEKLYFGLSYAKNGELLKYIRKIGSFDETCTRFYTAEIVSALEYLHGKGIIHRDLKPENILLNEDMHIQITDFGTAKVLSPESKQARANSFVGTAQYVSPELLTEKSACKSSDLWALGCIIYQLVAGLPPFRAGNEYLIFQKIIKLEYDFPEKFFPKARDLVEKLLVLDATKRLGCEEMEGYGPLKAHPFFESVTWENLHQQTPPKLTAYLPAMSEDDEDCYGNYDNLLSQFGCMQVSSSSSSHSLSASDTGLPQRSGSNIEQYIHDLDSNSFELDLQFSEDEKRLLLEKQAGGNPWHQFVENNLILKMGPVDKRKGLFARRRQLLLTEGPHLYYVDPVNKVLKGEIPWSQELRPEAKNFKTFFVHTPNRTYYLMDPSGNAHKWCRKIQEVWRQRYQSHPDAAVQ

The target of the next assay is T2, GST-PDK1 [Gln150Lys] (Homo sapiens, UniProt O15530, Q150K).
T2 construct: different protein constructs, comprising the full length protein or the catalytic domain alone; made in house; host or cells: HEK293 cells (pEBG-2T-PDK1 mutant)
T2 sequence (O15530 1-556 Q150K): T1 sequence (O15530 1-556 R131M) with M131R, Q150K

A further assay addresses T3, GST-PDK1 [Val124Ala] (Homo sapiens, UniProt O15530, V124A).
T3 construct: different protein constructs, comprising the full length protein or the catalytic domain alone; made in house; host or cells: HEK293 cells (pEBG-2T-PDK1 mutant)
T3 sequence (O15530 1-556 V124A): T1 sequence (O15530 1-556 R131M) with V124A, M131R

Positions count from the first letter of the chain named. Like-named read-outs stand apart in the source and are kept apart here. Ends that are not written are not given here.

`O=C(O)CSC(CC(=O)c1ccc(Cl)cc1)c1ccccc1` (stereo not drawn) [Compound 1]: the “activation of PDK1 mutant (in words)” value on GST-PDK1 [Arg131Met] (Arg131 mutated to Met) was “no longer activated”. The AC50 (usually the concentration at which the activity in the assay is half-maximal) at GST-PDK1 [Arg131Met] (GST-PDK1 [Arg131Met]) was “No Effect”; on GST-PDK1 [Gln150Lys] it was 15000 ± 4000 nM; on GST-PDK1 [Val124Ala], more than 200000 nM. In addition, the figures for the Max. activity on GST-PDK1 [Gln150Lys] and on GST-PDK1 [Val124Ala] were 1.37 ± 0.06 U/mg and 2.6 ± 0.5 U/mg, respectively.
For the compound “REPRILSEEEQEMFRDFDYIADWC [PIFtide, reference compound]”, the Max. activity at GST-PDK1 [Arg131Met] (GST-PDK1 [Arg131Met]) is listed as 0.34 ± 0.06 U/mg; on GST-PDK1 [Gln150Lys] it was 2.7 ± 0.2 U/mg; at GST-PDK1 [Val124Ala], 1.91 ± 0.06 U/mg. In addition, the AC50 was 290 ± 50 nM at GST-PDK1 [Arg131Met] (GST-PDK1 [Arg131Met], read-out: AC50); 290 ± 50 nM on GST-PDK1 [Gln150Lys]; 210 ± 30 nM at GST-PDK1 [Val124Ala].
